Earlier results as cited in US6737430B2, “Mutual prodrug of amlodipine and atorvastatin” (Pfizer, Inc., priority 2000, dated 2004).

Columns and labels:
[1] = system: calcium channel; details: cited from earlier work
[2] = system: smooth muscle cell migration; details: cited from earlier work

## CCOC(=O)C1=C(COCCN)NC(C)=C(C(=O)OC)[C@H]1c1ccccc1Cl (single isomer, unassigned) [(R) enantiomer, R(−)-amlodipine]
[1]
  calcium channel blocking activity: little or no calcium channel blocking activity
[2]
  inhibition of smooth muscle cell migration: potent inhibitor of smooth muscle cell migration
